The target of data set [1] is T1, D3R (Homo sapiens, UniProt P35462). Further details: expressed in transfected cells; host or cells: HEK293. As to conditions: cited from earlier work; for D2/D3: ratio of Ki values D2R/D3R; for D4/D3: ratio of Ki values D4R/D3R.
For the next data set, the target named is T2, human D1R (Homo sapiens, UniProt P21728).
T2 construct: expressed in transfected cells; host or cells: mouse fibroblast cells (LhD1)
The following applies: human cloned receptor; read-out: Ki ± SEM, D1R; cited from earlier work.

The target in data set [2] is T1, D3R. As to the kind of experiment: Radioligand competition binding at human D3R ([3H]N-methylspiperone, HEK293 membranes). Further details: expressed in transfected cells; host or cells: HEK293. On the procedure:
The novel hybrid derivatives 3–11 were tested at hD2R, hD3R, or hD4R stably expressed in HEK293 cells by competition binding assays, using [^3H]N-methylspiperone as the radioligand, to evaluate their D2-like affinity and subtype selectivity, following the previously reported procedures.[41],[45],[46]
Binding at dopamine D2-like receptors was determined using previously described methods.[41],[45],[46] Membranes were prepared from HEK293 cells stably expressing human D2, D3, or D4, grown in a 50:50 mix of Dulbecco’s minimal essential medium (DMEM) and Ham’s F12 culture media, supplemented with 20 mM HEPES, 2 mM L-glutamine, 0.1 mM nonessential amino acids, 1× antibiotic/antimycotic, 10% heat-inactivated fetal bovine serum, and 200 μg/mL hygromycin (Life Technologies, Grand Island, NY) and kept in an incubator at 37 °C and 5% CO2. Upon reaching 80–90% confluency, the cells were harvested using premixed Earle’s Balanced Salt Solution (EBSS) with 5 μM EDTA (Life Technologies) and centrifuged at 3000 rpm for 10 min at 21 °C. The supernatant was removed, and the pellet was resuspended in 10 mL hypotonic lysis buffer (5 mM MgCl2, 5 mM Tris, pH 7.4 at 4 °C) and centrifuged at 20,000 rpm for 30 min at 4 °C. The pellet was then resuspended in fresh EBSS buffer made from 8.7 g/L Earle’s Balanced Salts without phenol red (US Biological, Salem, MA), 2.2 g/L sodium bicarbonate, pH to 7.4. A Bradford protein assay (Bio-Rad, Hercules, CA) was used to determine the protein concentration, and membranes were diluted to 500 μg/mL and stored at −80 °C for later use. Radioligand competition binding experiments were conducted using thawed membranes. Test compounds were freshly dissolved in 30% DMSO and 70% H2O to a stock concentration of 100 μM. To assist the solubilization of free-base compounds, 10 μL of glacial acetic acid was added along with DMSO. Each test compound was then diluted into 13 half-log serial dilutions using 30% DMSO vehicle; the final test concentrations ranged from 10 μM to 10 pM. The previously frozen membranes were diluted in fresh EBSS to a 100 μg/mL (for D2 or D3) or 200 μg/mL (D4) stock for binding. Radioligand competition experiments were conducted in glass tubes containing 300 μL of fresh EBSS buffer, 50 μL of diluted test compound, 100 μL of membranes (10 μg of total protein for D2 or D3 and 20 μg of total protein for D4), and 50 μL of [^3H]N-methylspiperone (0.4 nM final concentration; PerkinElmer). Nonspecific binding was determined using 10 μM butaclamol (Sigma-Aldrich, St. Louis, MO), and total binding was determined with the 30% DMSO vehicle. All compound dilutions were tested in triplicate and the reaction was incubated for 1 h at room temperature. The reaction was terminated by filtration through Whatman GF/B filters, presoaked for 1 h in 0.5% polyethylenimine, using a Brandel R48 filtering manifold (Brandel Instruments, Gaithersburg, MD). The filters were washed three times with 3 mL of ice-cold EBSS buffer and transferred to scintillation vials. CytoScint liquid scintillation cocktail (3 mL, MP Biomedicals, Solon, OH) was added, and vials were counted using a PerkinElmer Tri-Carb 2910 TR liquid scintillation counter (Waltham, MA).
For orientation: In a radioligand displacement assay an active substance lowers the binding of a labelled ligand.

A further data set deals with D2R (Homo sapiens, UniProt P14416). Further details: expressed in transfected cells; host or cells: HEK293. As to conditions: human cloned receptor; read-out: Ki ± SEM, D2R; cited from earlier work.
D2R, sequence (P14416 whole entry): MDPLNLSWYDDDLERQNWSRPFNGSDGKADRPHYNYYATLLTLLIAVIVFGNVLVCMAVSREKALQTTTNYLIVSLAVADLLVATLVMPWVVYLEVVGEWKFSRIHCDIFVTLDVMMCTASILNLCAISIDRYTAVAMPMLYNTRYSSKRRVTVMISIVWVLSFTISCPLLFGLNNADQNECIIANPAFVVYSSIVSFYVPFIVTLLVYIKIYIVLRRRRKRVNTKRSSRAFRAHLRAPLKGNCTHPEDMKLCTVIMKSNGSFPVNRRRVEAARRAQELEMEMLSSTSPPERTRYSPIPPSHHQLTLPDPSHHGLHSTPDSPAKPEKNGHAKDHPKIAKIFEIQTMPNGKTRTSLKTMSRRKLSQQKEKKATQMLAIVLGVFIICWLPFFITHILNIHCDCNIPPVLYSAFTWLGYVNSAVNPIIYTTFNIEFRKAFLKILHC
For another data set, the target named is T3, human 5-HT1AR (Homo sapiens, UniProt P08908).
T3 construct: expressed in transfected cells; host or cells: HeLa
T3 sequence (P08908 1-422): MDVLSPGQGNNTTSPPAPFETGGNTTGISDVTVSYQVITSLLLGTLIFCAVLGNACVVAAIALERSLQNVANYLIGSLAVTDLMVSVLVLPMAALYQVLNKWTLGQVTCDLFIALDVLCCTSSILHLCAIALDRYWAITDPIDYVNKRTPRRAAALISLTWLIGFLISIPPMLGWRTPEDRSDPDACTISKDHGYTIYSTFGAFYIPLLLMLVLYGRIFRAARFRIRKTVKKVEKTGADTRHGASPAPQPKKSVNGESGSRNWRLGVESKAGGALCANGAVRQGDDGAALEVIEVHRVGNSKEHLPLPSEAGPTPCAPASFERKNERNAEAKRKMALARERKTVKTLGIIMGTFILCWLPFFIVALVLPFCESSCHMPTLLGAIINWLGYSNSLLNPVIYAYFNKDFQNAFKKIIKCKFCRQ
The following applies: human cloned receptor; read-out: Ki ± SEM, 5-HT1AR; cited from earlier work.

The target of another data set is 5-HT2AR (Homo sapiens, UniProt P28223). Further details: expressed in transfected cells; host or cells: HEK (HEK-h5HT2A). The following applies: human cloned receptor; read-out: Ki ± SEM, 5-HT2AR; cited from earlier work.
5-HT2AR, sequence (P28223 whole entry): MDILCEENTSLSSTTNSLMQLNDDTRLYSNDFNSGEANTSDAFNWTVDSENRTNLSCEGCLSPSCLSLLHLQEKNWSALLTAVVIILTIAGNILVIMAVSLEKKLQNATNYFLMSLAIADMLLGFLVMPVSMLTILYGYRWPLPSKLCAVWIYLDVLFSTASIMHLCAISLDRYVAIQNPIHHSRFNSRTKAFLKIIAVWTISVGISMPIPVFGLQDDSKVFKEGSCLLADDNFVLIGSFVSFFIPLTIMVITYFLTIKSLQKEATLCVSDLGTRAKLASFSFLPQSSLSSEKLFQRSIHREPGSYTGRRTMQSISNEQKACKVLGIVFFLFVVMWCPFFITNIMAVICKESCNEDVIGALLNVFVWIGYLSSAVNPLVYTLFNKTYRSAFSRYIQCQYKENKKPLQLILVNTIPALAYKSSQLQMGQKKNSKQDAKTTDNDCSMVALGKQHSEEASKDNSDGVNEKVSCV
The next data set has as its target T4, 5-HT2CR (Homo sapiens, UniProt P28335).
T4 sequence (P28335 33-458): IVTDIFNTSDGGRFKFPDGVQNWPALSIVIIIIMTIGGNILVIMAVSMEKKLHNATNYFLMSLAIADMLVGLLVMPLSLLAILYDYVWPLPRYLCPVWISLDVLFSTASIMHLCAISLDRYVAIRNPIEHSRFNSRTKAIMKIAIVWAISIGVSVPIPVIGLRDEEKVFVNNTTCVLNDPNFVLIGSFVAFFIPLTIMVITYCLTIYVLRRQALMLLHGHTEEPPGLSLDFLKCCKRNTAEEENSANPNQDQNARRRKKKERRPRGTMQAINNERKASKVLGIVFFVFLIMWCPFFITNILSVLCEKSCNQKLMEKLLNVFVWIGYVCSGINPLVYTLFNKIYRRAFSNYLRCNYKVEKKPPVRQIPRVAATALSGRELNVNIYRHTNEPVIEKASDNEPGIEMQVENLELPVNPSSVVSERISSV
Further details: expressed in transfected cells; host or cells: HEK (HEK-h5HT2C). The following applies: human cloned receptor; read-out: Ki ± SEM, 5-HT2CR; cited from earlier work.

The structures appear in SMILES notation. Structures can show the parent of a compound that is named as a salt. Where two headings read alike, the source gives them in different places. Marks after values point to notes of the source that are not given here.

T1 sequence (P35462 whole entry): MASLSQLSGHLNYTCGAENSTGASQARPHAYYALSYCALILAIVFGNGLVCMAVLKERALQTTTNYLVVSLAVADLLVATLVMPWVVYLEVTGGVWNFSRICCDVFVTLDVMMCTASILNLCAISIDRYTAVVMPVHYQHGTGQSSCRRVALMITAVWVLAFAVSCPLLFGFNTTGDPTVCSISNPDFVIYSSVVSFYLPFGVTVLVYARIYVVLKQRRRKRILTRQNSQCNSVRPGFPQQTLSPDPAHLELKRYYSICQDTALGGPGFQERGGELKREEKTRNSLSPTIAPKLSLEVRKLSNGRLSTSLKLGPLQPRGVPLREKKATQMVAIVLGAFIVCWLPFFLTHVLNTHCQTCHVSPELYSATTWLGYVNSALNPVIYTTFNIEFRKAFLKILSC
T2 sequence (P21728 whole entry): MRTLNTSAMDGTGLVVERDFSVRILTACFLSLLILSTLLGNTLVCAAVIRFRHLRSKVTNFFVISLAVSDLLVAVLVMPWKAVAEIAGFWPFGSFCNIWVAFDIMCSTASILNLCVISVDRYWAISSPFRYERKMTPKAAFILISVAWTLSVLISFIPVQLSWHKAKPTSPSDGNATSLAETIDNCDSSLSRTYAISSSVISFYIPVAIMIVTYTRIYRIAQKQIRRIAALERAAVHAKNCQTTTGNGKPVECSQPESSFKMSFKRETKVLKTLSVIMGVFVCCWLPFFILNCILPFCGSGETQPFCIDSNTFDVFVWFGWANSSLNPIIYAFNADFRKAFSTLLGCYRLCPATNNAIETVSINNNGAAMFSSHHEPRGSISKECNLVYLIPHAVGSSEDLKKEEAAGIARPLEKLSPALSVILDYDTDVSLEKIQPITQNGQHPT

`O=C(NCCC(O)CN1CCN(c2cccc(Cl)c2Cl)CC1)C1COc2ccccc2O1` (single isomer, unassigned) (as salt: oxalate) [10a, N-(4-(4-(2,3-Dichlorophenyl)piperazin-1-yl)-3-hydroxybutyl)-2,3-dihydrobenzo[b][1,4]dioxine-2-carboxamide]: the melting point lay in the range of 88 to 89 °C.

As for `CN1CCN(C2=Nc3cc(Cl)ccc3Nc3ccccc32)CC1` [clozapine], at D3R [1], the D2/D3 is recorded as 0.62 ^e and the D4/D3 is 0.21 ^e.

`COc1ccccc1OCCNCC1COCC(c2ccccc2)(c2ccccc2)O1` (centres unmarked) [compound 1]: the Ki on human D1R is 22.9 ± 3.1 nM.

For `Oc1cccc(OCCNCC2COCC(c3ccccc3)(c3ccccc3)O2)c1` (centres unmarked) [compound 2], the D2/D3 at D3R [2] (ratio of Ki values D2R/D3R) is reported as 2. Also, at D3R [2] (ratio of Ki values D4R/D3R), the D4/D3 amounted to 8. Besides, the Ki is 3.16 ± 1 nM on D2R; 1.15 ± 0.03 nM on human 5-HT1AR; 1.38 ± 0.07 nM on D3R [1] (human cloned receptor, read-out: Ki ± SEM, D3R); 1410 ± 224 nM at 5-HT2AR; 9770 ± 501 nM on 5-HT2CR; 123 ± 11 nM on human D1R.

On to `Cc1cc2c(s1)Nc1ccccc1N=C2N1CCN(C)CC1` [olanzapine], for which, on D3R [1], the D2/D3 is 0.62 ^e and the D4/D3 is given as 0.51 ^e.

Usually melting point stands for the temperature, or range, at which the solid turns liquid. What is called Ki is the equilibrium dissociation constant of an inhibitor or competing ligand from its target.

Values taken from paper PMC8498988, “Scaffold Hybridization Strategy Leads to the Discovery of Dopamine D3 Receptor-Selective or Multitarget Bitopic Ligands Potentially Useful for Central Nervous System Disorders” (ACS Chemical Neuroscience, 2021).
